From patent US20260193295A1, “CILAGICIN COMPOUNDS AND METHODS OF USE THEREOF” (priority 2022, published 2026)
≈ marks a conversion by molar mass, not a printed value. Positions of bridges follow the written chain, without caps; N, C: chain ends. Non-standard residues stand in square brackets, D forms with d. Residues, ends and D or L forms follow the SMILES beside them. *: point of attachment. Benzoyl(4-Ph) = O=C(c1ccc(-c2ccccc2)cc1)*; dDab = NCC[C@@H](N)C(=O)O; Dab = NCC[C@H](N)C(=O)O

Tests used:
S. aureus USA300 = test: Neutropenic thigh infection model in mice; format: in vivo, Staphylococcus aureus; settings: neutropenic mouse thigh model, S. aureus USA300, 40 mg/kg thrice daily (TID) IP, 24 hours post infection
Procedure: Mice were randomly housed in individually ventilated cages (IVC). The room was set on a twelve-hour light cycle and the temperature was set to 70° F. The humidity was set to 30%. To initiate the neutropenic model, mice were injected with 150 mg/kg and 100 mg/kg of cyclophosphamide via intraperitoneal (IP) injection on days −4 and −1, respectively. On day −1, a single colony of S. aureus USA300 was grown in 15 mL of cation adjusted Mueller Hinton (MH) broth at 37° C. with shaking overnight. On day 0, cells were centrifuged, washed twice in 0.9% sterile saline, and resuspended in sterile 0.9% saline solution to give final optical density (600 nm) of 0.1. 50 μL of bacteria suspension was injected into both thighs via intramuscular (IM) injection. This provides a challenge inoculum of approximately 1.0×10^6 CFU in each thigh in a volume of 50 μL. At 2 hours post infection, mice were given 200 μL of vehicle (10% DMSO), vancomycin (40 mg/kg, 10% DMSO) or cilagicin BP (40 mg/kg, 10% DMSO) at 2, 10, and 18 hours post infection via IP injection. Mice in the pretreatment group (n=4 mice/n=8 thighs) were humanely euthanized by CO2 narcosis to determine the starting thigh bacterial burden. […] All graphic data are expressed as data points by group and were statistically analyzed using Prism software (Prism 9). […]

[1] = test system: red blood cell (5% sheep blood agar plate); format: cell-based
Procedure: The hemolytic activity of cilagicin was evaluated using a red blood cell disc diffusion assay. Cilagicin and other test compounds were dissolved in 10% DMSO to give concentrations ranging from 100 μg/mL to 12.5 μg/mL. 10% (v/v) Triton X-100 and 10% DMSO were used as positive and vehicle controls, respectively. 20 μL of each serially diluted compound was infused on a sterile disc. Infused discs were overlaid on the surface of a 5% sheep blood agar plate (Hardy diagnostics, USA) and incubated at 20° C. for 24 hours. The size of the transparent ring that appeared in the agar plate was measured to determine hemolytic activity. Experiments were performed two independent times. A representative picture was taken of one experiment.

HEK293 cells = format: cell-based, human
Procedure: The cytotoxicity of […] analogs was tested using an MTT (3-(4,5-Dimethyl-2-thiazolyl)-2,5-diphenyl-2H-tetrazolium bromide) assay as previously described ([…] et al., 2006, […]7). HEK293 cells were seeded in a 96-well plate with a density of 5,000 cells/well and cultured in Dulbecco's Modified Eagle Medium (DMEM) supplemented with 10% fetal bovine serum, 1% Pen/Strep and 1% glutamate for 24 hours at 37° C. with 5% CO2. […] After 48 hours of incubation, the media was removed and 110 μL of freshly prepared MTT solution (0.45 mg/mL in DPBS) was added to each well. The plates were incubated for 3 hours at 37° C. with 5% C02 after which the MTT solution was removed by aspiration. […] The absorbance of each well was measured at OD570nm using a microplate reader (Infinite 200 PRO, Tecan). […] All the experiments were performed in triplicates (n=3) and repeated two independent times (n=2).

Streptococcus pneumoniae = format: cell-based
Procedure: (§1) MIC assay were conducted using the protocol recommended by the Clinical and Laboratory Standards Institute.(37) Culture conditions (temperature, medium) are detailed in Table 3. All compounds were dissolved in sterile DMSO (ATCC, USA) to give a concentration of 6.4 mg/mL. Vancomycin hydrochloride was used as positive controls. Tested compounds were serially diluted across 96-well plates using a 2-fold serial dilution in a volume of 50 μL. An overnight culture of an assay strain was diluted 5,000-fold in fresh medium. 50 μL of this dilution was added into each well, giving a final volume of 100 μL in each well. Compounds were assayed at concentrations ranging from 64 μg/mL to 0.06 μg/mL. The top and bottom rows of each plate were filled with 100 μL of media to avoid edge effects. […] For Clostridium difficile plates were statically incubated under anaerobic conditions (Vinyl anaerobic chamber, 37° C., 5% H2, 5% CO2, 90% N2). For Streptococcus pneumoniae plates were statically incubated under aerobic conditions supplemented with 5% C02 (37° C.). All MICs were performed in technical duplicate (n=2) and repeated three independent times (n=3).

Streptococcus agalactiae = format: cell-based
Procedure: as §1

Enterococcus faecium = format: cell-based
Procedure: as §1

Streptococcus pyrogens = format: cell-based
Procedure: as §1

Staphylococcus aureus = format: cell-based
Procedure: as §1

Clostridium difficile = test: MIC assay (broth microdilution); format: cell-based; settings: C. difficile HM89
Procedure: as §1

S. pyrogens ATCC19615 = test: Neutropenic thigh infection model in mice; format: in vivo, Streptococcus pyrogens; settings: neutropenic mouse thigh model

Question: `CC(C)[C@@H]1NC(=O)[C@H](Cc2ccc(O)cc2)NC(=O)CNC(=O)[C@@H](CC(=O)O)NC(=O)[C@@H](CC(N)=O)NC(=O)CNC(=O)[C@H](CC(=O)O)NC(=O)[C@@H](CCN)NC(=O)[C@@H](NC(=O)[C@@H](CO)NC(=O)c2ccc(-c3ccccc3)cc2)[C@@H](C)OC(=O)[C@H](Cc2ccccc2)NC(=O)[C@H](CCN)NC1=O` [Cilagicin BP] ({Benzoyl(4-Ph)}-[dS]T[dDab]DG[dN][dD]GYV[Dab]F; ester 2-C) was tested. Which “reduction in colony forming units (CFU) compared to the vehicle control” value (S. aureus USA300) did it give?
Answer: ~4 log10

Question: And the hemolytic activity [1]?
Answer: no hemolytic activity

Question: And the human cell cytotoxicity (HEK293 cells)?
Answer: no human cell cytotoxicity

Question: What about the MIC (Streptococcus pneumoniae) of the same compound?
Answer: 4 µg/mL (≈ 2.78 µM)

Question: And the MIC (Streptococcus agalactiae)?
Answer: 16 µg/mL (≈ 11.1 µM)

Question: And the MIC (Enterococcus faecium)?
Answer: >64 µg/mL

Question: And the MIC (Streptococcus pyrogens)?
Answer: 1 µg/mL (≈ 0.696 µM)

Question: And the MIC (Staphylococcus aureus)?
Answer: 4 µg/mL (≈ 2.78 µM)

Question: What about the “antibacterial activity (MIC) in the presence of serum” value (Staphylococcus aureus; S. aureus, presence versus absence of serum (10% serum)) of the same compound?
Answer: no increase in MIC

Question: And the MIC (Clostridium difficile)?
Answer: 16 µg/mL (≈ 11.1 µM)

Question: What about the “reduction in bacterial burden compared to the vehicle control” value (S. pyrogens ATCC19615; S. pyrogens ATCC19615, 40 mg/kg TID IP, 24 hours post infection) of the same compound?
Answer: > 5 log10

Question: What about the “reduction of bacterial burden compared with vancomycin” value (S. pyrogens ATCC19615; S. pyrogens, both 40 mg/kg TID) of the same compound?
Answer: more than a log greater reduction of bacterial burden than vancomycin
